In PMC6687188, “Novel lactate dehydrogenase inhibitors with in vivo efficacy against Cryptosporidium parvum” (PLoS Pathogens, 2019):

Biological target: recombinant CpLDH protein (Cryptosporidium parvum, UniProt Q9GT92, F198L/K295E/R251K)

**Q.** With `O=[Se]([O-])[O-].[Na+].[Na+]` [NSC347466] as the compound, how does the “MEAN CpLDH INHIBITION (%)” value read?
**A.** -3.84%

**Q.** Which “MEAN CpLDH INHIBITION (%)” value does the source give for `O=C1Oc2ccccc2C1C/C(=N\Nc1ccccc1)c1ccccc1O` (centres unmarked) [NSC647613] here?
**A.** -29.39%

**Q.** How did the “MEAN CpLDH INHIBITION (%)” value turn out when `Cc1cc2cc3cc(C)c(N)cc3nc2cc1N.Cl` [NSC13973] was run?
**A.** -3.43%

**Q.** `CCCCn1c2c(n(CCCC)c1=S)-c1c(n(CCCC)c(=S)n1CCCC)SSSS2` [NSC700582] was tested. Which “MEAN CpLDH INHIBITION (%)” value did it give?
**A.** -83.75%

**Q.** How did the “MEAN CpLDH INHIBITION (%)” value turn out when `O=C1c2ccccc2C(=O)c2sc(Nc3ccc(Cl)c(Cl)c3)nc21` [NSC631521] was run?
**A.** -0.12%

**Q.** With `Cc1ccc(Cl)c2c(N=Nc3ccccc3[N+](=O)[O-])c(O)[nH]c12` [NSC118735] as the compound, how does the “MEAN CpLDH INHIBITION (%)” value read?
**A.** -15.17%

**Q.** With `CCCCCc1cc(/C=C2/N=C(c3ccc[nH]3)C=C2OC)[nH]c1C` [NSC47147] as the compound, how does the “MEAN CpLDH INHIBITION (%)” value read?
**A.** -37.67%

**Q.** How did the “MEAN CpLDH INHIBITION (%)” value turn out when `NC1=C(Br)C(=O)c2ncccc2C1=O` [NSC105808] was run?
**A.** -67.00%

**Q.** Which “MEAN CpLDH INHIBITION (%)” value does the source give for `CCCN(CCC)C(=S)Sc1nc(C)nc(N2CCN(c3nc(C)nc(SC(=S)N(CCC)CCC)c3[N+](=O)[O-])CC2)c1[N+](=O)[O-]` [NSC675593] here?
**A.** -141.86%

**Q.** `Oc1ccc2ccccc2c1N=Nc1cccc2ccccc12` [NSC45575] was tested. Which “MEAN CpLDH INHIBITION (%)” value did it give?
**A.** -10.08%

**Q.** Which “MEAN CpLDH INHIBITION (%)” value does the source give for `O=C(CCCN1CCC(C(O)c2ccc(F)cc2)CC1)c1ccc(F)cc1` (centres unmarked) [NSC343513] here?
**A.** -0.97%

**Q.** How did the “MEAN CpLDH INHIBITION (%)” value turn out when `COC(=O)NC1C(C)OC(OC2C/C=C(/C)C3C=CC4C(OC5CC(OC6CC(O)C(OC7CC(O)C(OC)C(C)O7)C(C)O6)C(O)C(C)O5)C(C)CC(C)C4C3(C)/C(O)=C3\C(=O)OC4(CC(C)C(CO)=CC4/C=C\2C)C3=O)CC1(C)[N+](=O)[O-]` (centres unmarked) [NSC363182] was run?
**A.** -79.07%

**Q.** With `[Mo]` [NSC622124] as the compound, how does the “MEAN CpLDH INHIBITION (%)” value read?
**A.** 0.01%

**Q.** With `COc1ccc2cccc(C(=N)c3ccc(C)c4c3CCC4)c2c1` [NSC625590] as the compound, how does the “MEAN CpLDH INHIBITION (%)” value read?
**A.** -11.59%

**Q.** How did the “MEAN CpLDH INHIBITION (%)” value turn out when `NC(=O)c1cn([C@@H]2O[C@H](CO)[C@@H](O)[C@H]2O)c2ncnc(N)c12` [NSC65346] was run?
**A.** -11.87%

**Q.** Which “MEAN CpLDH INHIBITION (%)” value does the source give for `COc1c(O[C@@H]2O[C@H](CO)[C@@H](O)[C@H](O)[C@H]2O)cc2c(c1OC)-c1ccc(OC)c(=O)cc1[C@@H](NC(C)=O)CC2` [NSC32992] here?
**A.** -5.35%

**Q.** How did the “MEAN CpLDH INHIBITION (%)” value turn out when `C1CCNCC1.S=C(S)N1CCCCC1` [NSC1906] was run?
**A.** -58.60%

**Q.** Which “MEAN CpLDH INHIBITION (%)” value does the source give for `CC[C@@]1(O)C[C@H](O)c2c(O)c3c(c(O)c2[C@H]1C(=O)OC)C(=O)c1cccc(O)c1C3=O` [NSC196524] here?
**A.** -30.88%

**Q.** Which “MEAN CpLDH INHIBITION (%)” value does the source give for `CN/N=C(\C)C(CN1CCCCC1)C(C1=C(O)c2ccccc2OC1)c1ccccc1.Cl` (centres unmarked) [NSC647418] here?
**A.** -56.81%

**Q.** How did the “MEAN CpLDH INHIBITION (%)” value turn out when `N#CC(C#N)=Cc1cccc(Oc2ccccc2)c1` [NSC643031] was run?
**A.** -51.68%

**Q.** With `CC(C)c1ccc(O)c(=O)cc1` [NSC18805] as the compound, how does the “MEAN CpLDH INHIBITION (%)” value read?
**A.** -40.28%

**Q.** For `COC(=O)C1CCC(=O)N1C(c1ccc(OC)cc1)c1cc(OC)c(OC)c(OC)c1` (centres unmarked) [NSC673622], which “MEAN CpLDH INHIBITION (%)” value is on record?
**A.** -14.54%

**Q.** How did the “MEAN CpLDH INHIBITION (%)” value turn out when `CCCCC(/C=N/N=C(N)N)CC.Cc1cc(O)c(C(C)C)cc1S(=O)(=O)O` [NSC66300] was run?
**A.** -42.12%

**Q.** `O=C(O)c1ccccc1-c1ccccc1C(=O)Nc1ccc2c(c1)Cc1ccccc1-2` [NSC67690] was tested. Which “MEAN CpLDH INHIBITION (%)” value did it give?
**A.** -56.08%

**Q.** `Cc1c(C(=O)C/C(=N/NC(=O)CC#N)C(N)=O)[n+](=O)c2ccccc2n1[O-]` [NSC635542] was tested. Which “MEAN CpLDH INHIBITION (%)” value did it give?
**A.** -10.72%

**Q.** With `O=C1c2ccccc2-c2c1c1ccccc1c(=O)n2Cc1ccccc1` [NSC337612] as the compound, how does the “MEAN CpLDH INHIBITION (%)” value read?
**A.** -26.65%

**Q.** How did the “MEAN CpLDH INHIBITION (%)” value turn out when `CC(=O)O[C@]1(C(C)=O)CC[C@H]2[C@@H]3C[C@H](C)C4=CC(=O)C=C[C@]4(C)[C@@]3(F)[C@@H](O)C[C@@]21C` [NSC47438] was run?
**A.** -57.83%

**Q.** Which “MEAN CpLDH INHIBITION (%)” value does the source give for `O=C(c1nc2ccc(Cl)cc2[nH]c1=O)C(O)c1ccc2c(c1)OCO2` (centres unmarked) [NSC642649] here?
**A.** -27.23%

**Q.** For `COCCOC1=C(Cl)C(=O)c2c(O)ccc(O)c2C1=O` [NSC659997], which “MEAN CpLDH INHIBITION (%)” value is on record?
**A.** -9.35%

**Q.** Which “MEAN CpLDH INHIBITION (%)” value does the source give for `COc1ccc(N=C2C(=Nc3ccc(OC)cc3)N(c3ccc(N(C)C)cc3)C(=S)N2c2ccc(OC)cc2)cc1` [NSC671394] here?
**A.** -158.34%

**Q.** How did the “MEAN CpLDH INHIBITION (%)” value turn out when `COc1cc2c3c(c1OC)-c1cc4c(cc1CC3(C#N)N(C(=O)c1ccccc1)CC2)OCO4` (centres unmarked) [NSC627666] was run?
**A.** -0.33%

**Q.** For `Cc1ccccc1NC(=O)C(=O)C(c1cnc2ccc([N+](=O)[O-])cc2n1)[N+](=O)[O-]` (centres unmarked) [NSC644735], which “MEAN CpLDH INHIBITION (%)” value is on record?
**A.** -56.47%

**Q.** Which “MEAN CpLDH INHIBITION (%)” value does the source give for `O=C(c1ccccc1)C1OC12C(=O)Nc1c(Cl)cc(Cl)cc12` (centres unmarked) [NSC635306] here?
**A.** -37.53%

**Q.** `CN(C)c1ccc(/C=C2\C=Cc3ccccc32)cc1` [NSC80087] was tested. Which “MEAN CpLDH INHIBITION (%)” value did it give?
**A.** -24.95%

**Q.** `Cl.Cl.Cl.Cl.NCCCNCCCCNCCCN` [NSC69852] was tested. Which “MEAN CpLDH INHIBITION (%)” value did it give?
**A.** -11.66%

**Q.** For `CC(=O)O[C@H]1C(=O)[C@@]2(C)[C@H]([C@H](OC(=O)c3ccccc3)[C@]3(O)C[C@H](O)C(C)=C1C3(C)C)[C@]1(OC(C)=O)CO[C@@H]1C[C@@H]2O` [NSC330753], which “MEAN CpLDH INHIBITION (%)” value is on record?
**A.** -63.01%

**Q.** `C[C@]12CC[C@H](O)C[C@H]1CC[C@@H]1[C@@H]2CC[C@]2(C)[C@@H](C3=CC(=O)OC3)CC[C@]12O` [NSC407806] was tested. Which “MEAN CpLDH INHIBITION (%)” value did it give?
**A.** -16.59%

**Q.** How did the “MEAN CpLDH INHIBITION (%)” value turn out when `Cc1ccccc1NC(=O)C(=O)C(C(=O)c1ccccc1F)C1OC(=O)c2ccccc21` (centres unmarked) [NSC641228] was run?
**A.** -51.30%

**Q.** Which “MEAN CpLDH INHIBITION (%)” value does the source give for `Cc1ccc(NC(=O)c2cccc([N+](=O)[O-])c2O)c([N+](=O)[O-])c1` [NSC82025] here?
**A.** -16.46%

**Q.** For `CCN(CC)Cc1cc(N=Nc2c(O)ccc3c(N=Nc4ccc(O)c(CN(CC)CC)c4)c(O)ccc23)ccc1O.Cl` [NSC359463], which “MEAN CpLDH INHIBITION (%)” value is on record?
**A.** -17.14%

**Q.** `[Mo]` [NSC622116] was tested. Which “MEAN CpLDH INHIBITION (%)” value did it give?
**A.** -10.74%

**Q.** How did the “MEAN CpLDH INHIBITION (%)” value turn out when `CN1CCN(CCNc2ccc(CO)c3sc4ccccc4c(=O)c23)CC1` [NSC166381] was run?
**A.** -6.81%

**Q.** How did the “MEAN CpLDH INHIBITION (%)” value turn out when `COc1ccc(N=Cc2ccc(N(CCC#N)S(=O)(=O)c3ccccc3)cc2C)cc1` [NSC643599] was run?
**A.** -33.57%

**Q.** How did the “MEAN CpLDH INHIBITION (%)” value turn out when `O=C1c2ccccc2C(=O)c2c(O)c(NCCNCCO)cc(O)c21` [NSC316157] was run?
**A.** -4.71%

**Q.** With `C=C(C)[C@@H]1CC[C@]2(C)CC[C@]3(C)[C@H](CC[C@@H]4[C@@]5(C)CC[C@H](O)C(C)(C)[C@@H]5CC[C@]43C)[C@@H]12` [NSC90487] as the compound, how does the “MEAN CpLDH INHIBITION (%)” value read?
**A.** -42.73%

**Q.** For `Cl.NC1(CCNC(=O)c2ccccc2)CCN(C(=O)c2ccccc2)CC1` [NSC680509], which “MEAN CpLDH INHIBITION (%)” value is on record?
**A.** -41.56%

**Q.** `CC[C@@]1(O)C(=O)OCc2c1cc1n(c2=O)Cc2cc3c(N)cccc3nc2-1` [NSC629971] was tested. Which “MEAN CpLDH INHIBITION (%)” value did it give?
**A.** -14.81%

**Q.** With `COc1ccc(C2c3cc4c(c(OC)c3CC3OCC(=O)C32)OCO4)cc1OC` (centres unmarked) [NSC126727] as the compound, how does the “MEAN CpLDH INHIBITION (%)” value read?
**A.** -5.88%

**Q.** With `CCOC(=O)CCn1ncc(Cl)c(Cl)c1=O` [NSC634471] as the compound, how does the “MEAN CpLDH INHIBITION (%)” value read?
**A.** -23.23%

**Q.** With `CC(C)c1cccc(O)c(=O)c1` [NSC18804] as the compound, how does the “MEAN CpLDH INHIBITION (%)” value read?
**A.** -36.91%
